Data set [1] concerns HER2-positive BT-474 cells. As to the kind of experiment: In vitro endocytosis into BT-474 cells. The format is cell-based, human. The method, then:
(§1) BT-474 and SK-BR-3 cells were cultured to the exponential growth phase, harvested, and washed with pre-cooled PBS. […] Alexa Fluor 488-conjugated goat anti-human IgG (H + L) secondary antibody (10 μg/mL; Invitrogen, Shanghai, China) was subsequently added, and the cells were incubated on ice for 30 min. After additional washes, the cells were resuspended in pre-cooled PBS, divided into five aliquots, and incubated at 37°C for 0, 10, 30, 90, or 120 min. At each time point, cells were further split into two sub-aliquots: one treated with Trypan Blue to quench extracellular fluorescence and the other with PBS as an unquenched control. Fluorescence intensity was measured using a flow cytometer (Guava, Merck Millipore). The percentage of endocytosis was calculated as the ratio of quenched to unquenched fluorescence multiplied by 100%.

Data set [2] concerns HER2-positive SK-BR-3 cells. As to the kind of experiment: In vitro endocytosis into SK-BR-3 cells. The data set is classed as cell-based, human. The method, then: as §1
The subject of data set [3] is HER2-negative cell line MDA-MB-468. As to the kind of experiment: In vitro inhibition of proliferation of HER2-negative cells (EZMTT). The format is cell-based, human. The settings on record: at high concentrations.
Data set [4] deals with BT-474 human breast cancer xenografts. As to the kind of experiment: BT-474 xenograft efficacy study. The data set is classed as in vivo, BALB/c nude mice. The conditions noted are these: BT-474 model, administered alone.
The next data set has as its system tumor cells. The data set can be described thus: In vitro cytotoxicity of Tub114 and Tub114-cys. The format is cell-based. The settings on record: at the same concentration as the corresponding ADC; Supplementary Figure S2. The method, then: EC50 values were calculated using the built-in software.
Data set [5] in a line: Single-dose pharmacokinetic study in cynomolgus monkey.
The conditions of data set [6]: cited from earlier work; for Cmax of free payload: ref Poon et al., 2013.
The conditions of data set [7]: exceeds total body water content in rats; ref Pharmaceuticals and Medical Devices Agency, 2013; cited from earlier work.
Setting [8] is: Tub114-cys alone 1 mg/kg single administration.
Setting [9] is: free Tub114-cys in plasma after DX126-262 3 mg/kg single i.v.
[10] abbreviates: free Tub114-cys in plasma after DX126-262 10 mg/kg single i.v.
The mark [11] stands for this setting: free Tub114-cys in plasma after DX126-262 30 mg/kg single i.v.

Where two headings read alike, the source gives them in different places. A value given as a limit tells only on which side of the number the result lay.

ado-trastuzumab emtansine [Kadcyla]: the “Endocytosis Efficiency” value in data set [1] (BT-474, incubation time 0 min) is listed as 10.8%; in data set [1] (BT-474, incubation time 10 min) it was 27.3%; in data set [1] (BT-474, incubation time 30 min), 34.2%; in data set [1] (BT-474, incubation time 90 min), 38.6%; in data set [1] (BT-474, incubation time 120 min), 43.8%; in data set [2] (SK-BR-3, incubation time 0 min) it was 9.3%. The “Endocytosis Efficiency” value was determined as 11.8% in data set [2] (SK-BR-3, incubation time 10 min); 17.4% in data set [2] (SK-BR-3, incubation time 30 min); 31.6% in data set [2] (SK-BR-3, incubation time 90 min); 33.4% in data set [2] (SK-BR-3, incubation time 120 min). Further, the “Toxicity to HER2-negative cell line MDA-MB-468” value in data set [3] is on record as “some inhibitory effects”.
As to `CCC(C)C(NC(=O)C(C)(C)N(C)C)C(=O)N(C)C(CC(OC(C)=O)c1nc(C(=O)NC(Cc2ccc(O)c(NC(=O)CCCNC(=O)C(CCCCNC(=O)COCCOCCOCCOCCOCCOCCOCCOCCOCCOC)NC(=O)CCCN3C(=O)CC(SCC(N)C(=O)O)C3=O)c2)CC(C)C(=O)O)cs1)C(C)C` (centres unmarked) [Tub114-cys], the Antitumor effect result in data set [4] is given as “no antitumor effect”. Further, in the data set with tumor cells, the “Killing of tumor cells by free payload” value was “neither Tub114 nor Tub114-cys could kill tumor cells at the same concentration as the corresponding ADC”. For the same compound, the “Cmax of free payload” value in data set [5] (Tub114-cys after 3 mg/kg DX126-262) was determined as 5.5 nM. For the same compound, in data set [5] (Tub114-cys after 10 mg/kg DX126-262), the “Cmax of free payload” value was found to be 14.6 nM. In addition, the “Cmax of free payload” value in data set [5] (Tub114-cys after 30 mg/kg DX126-262) worked out at 31.7 nM. In data set [5] (setting [8]), the AUCinf is on record as 4,501.5 ± 657.9 ng•hr/mL, the CL was 3.772 ± 0.578 mL/min/kg, the Cmax is 4,155.8 ± 464.2 ng/mL and the T1/2 was 1.2 ± 0.2 h. In addition, the Vss in data set [5] (setting [8]) came out at 0.2538 ± 0.0307 L/kg. In data set [5] (setting [9]), this compound displayed an AUC inf of 519.2 ± 381.9 ng·h/mL, a Cmax of 9.5 ± 1.1 ng/mL and a T1/2 of 51.4 ± 47.1 h. In data set [5] (setting [10]), this compound came in with an AUC inf of 966.4 ± 115.4 ng·h/mL, a Cmax of 25.0 ± 5.2 ng/mL and a T1/2 of 26.6 ± 6.6 h. In addition, in data set [5] (setting [11]), the AUC inf is 2,505.7 ± 419.6 ng•hr/mL, the Cmax was 54.3 ± 5.7 ng/mL and the T1/2 amounted to 28.1 ± 2.7 h.
On to `COc1cc2cc(c1Cl)N(C)C(=O)C[C@H](OC(=O)[C@H](C)N(C)C(=O)CCS)[C@]1(C)O[C@H]1[C@H](C)[C@@H]1C[C@@](O)(NC(=O)O1)[C@H](OC)/C=C/C=C(\C)C2` [DM1], for which the “Cmax of free payload” value in data set [6] (DM1 after 3 mg/kg Kadcyla) was 8.0 nM; in data set [6] (DM1 after 10 mg/kg Kadcyla), 28.2 nM; in data set [6] (DM1 after 30 mg/kg Kadcyla) it was 90.2 nM. In addition, the Vss in data set [7] was > 0.668 L/kg.
Turning to `CC[C@@]1(O)C(=O)OCc2c1cc1n(c2=O)Cc2c-1nc1cc(F)c(C)c3c1c2[C@@H](NC(=O)CO)CC3` [Dxd], the Vss in data set [6] (Dxd 1 mg/kg, ref Nagai et al., 2019) is 0.832 L/kg.

The record behind these values is PMC11847841, “The development and evaluation of a tublysine-based antibody-drug conjugate with enhanced tumor therapeutic efficacy” (Frontiers in Pharmacology, 2025).
